Test results as given in US20230322747A1, “OXADIAZOLE HDAC6 INHIBITORS AND USES THEREOF” (Eikonizo Therapeutics, Inc., priority 2022, published 2023).

What was measured:
Human HDAC6 = Human HDAC6 (Homo sapiens (Human), UniProt Q9UBN7); assay: HDAC6 enzymatic activity assay (Caliper endpoint or fluorogenic format); type: biochemical; conditions: for IC50: in vitro enzymatic; for Selectivity (6 v 8) (fold): ratio of HDAC8 IC50/HDAC6 IC50
Human HDAC8 = Human HDAC8 (Homo sapiens (Human), UniProt Q9BY41); assay: Caliper endpoint assay for HDAC8 enzymatic activity; type: biochemical; conditions: in vitro enzymatic
Sequence of Human HDAC8 (Q9BY41 whole entry): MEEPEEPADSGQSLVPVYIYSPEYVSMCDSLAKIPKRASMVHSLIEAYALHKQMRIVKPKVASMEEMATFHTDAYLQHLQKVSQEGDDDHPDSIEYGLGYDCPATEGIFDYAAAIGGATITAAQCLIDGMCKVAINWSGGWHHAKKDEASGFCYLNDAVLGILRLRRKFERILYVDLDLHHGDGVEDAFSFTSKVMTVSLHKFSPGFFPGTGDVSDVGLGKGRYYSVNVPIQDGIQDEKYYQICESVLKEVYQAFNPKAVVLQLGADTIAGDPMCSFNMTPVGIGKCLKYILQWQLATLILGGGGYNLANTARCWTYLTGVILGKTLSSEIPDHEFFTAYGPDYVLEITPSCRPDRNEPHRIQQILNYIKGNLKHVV

Sequence of Human HDAC6 (Q9UBN7 whole entry): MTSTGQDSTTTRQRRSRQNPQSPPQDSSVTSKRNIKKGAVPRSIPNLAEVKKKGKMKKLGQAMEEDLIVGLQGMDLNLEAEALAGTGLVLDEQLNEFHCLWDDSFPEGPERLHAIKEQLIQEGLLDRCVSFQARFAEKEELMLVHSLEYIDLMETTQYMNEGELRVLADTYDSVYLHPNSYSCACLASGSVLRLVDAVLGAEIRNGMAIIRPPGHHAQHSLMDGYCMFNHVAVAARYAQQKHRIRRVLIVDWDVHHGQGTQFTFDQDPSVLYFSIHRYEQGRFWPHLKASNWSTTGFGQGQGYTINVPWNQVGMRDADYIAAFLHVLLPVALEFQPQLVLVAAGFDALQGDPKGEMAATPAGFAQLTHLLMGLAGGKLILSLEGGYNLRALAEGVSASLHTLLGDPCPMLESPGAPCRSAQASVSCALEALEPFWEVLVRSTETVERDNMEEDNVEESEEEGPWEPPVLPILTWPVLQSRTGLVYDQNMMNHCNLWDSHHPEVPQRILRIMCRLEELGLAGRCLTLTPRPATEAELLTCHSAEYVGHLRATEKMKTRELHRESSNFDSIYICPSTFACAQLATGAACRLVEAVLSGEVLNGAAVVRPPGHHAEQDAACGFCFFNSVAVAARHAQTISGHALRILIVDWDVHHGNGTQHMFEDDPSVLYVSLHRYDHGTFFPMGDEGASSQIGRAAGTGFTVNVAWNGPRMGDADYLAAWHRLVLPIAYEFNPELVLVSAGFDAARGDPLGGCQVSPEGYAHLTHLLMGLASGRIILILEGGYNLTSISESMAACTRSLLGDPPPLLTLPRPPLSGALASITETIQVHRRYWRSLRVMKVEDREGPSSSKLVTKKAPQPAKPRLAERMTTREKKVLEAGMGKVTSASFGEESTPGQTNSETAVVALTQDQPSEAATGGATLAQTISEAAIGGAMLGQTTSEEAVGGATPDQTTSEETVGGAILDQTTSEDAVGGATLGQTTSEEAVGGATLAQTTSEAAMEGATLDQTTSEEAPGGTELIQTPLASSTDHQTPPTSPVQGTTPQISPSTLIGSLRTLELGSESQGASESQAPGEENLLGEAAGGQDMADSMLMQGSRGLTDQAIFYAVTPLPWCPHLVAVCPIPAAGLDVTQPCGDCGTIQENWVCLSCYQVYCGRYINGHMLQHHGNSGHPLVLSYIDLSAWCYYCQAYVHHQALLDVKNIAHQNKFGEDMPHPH

| IC50 (Human HDAC6) | Selectivity (6 v 8) (fold) (Human HDAC6) | IC50 (Human HDAC8) | SMILES |
| --- | --- | --- | --- |
| 0.001 to 0.1 µM | V (V: >1000) | 10 to 100 µM | FC(F)c1nnc(-c2ccc(COc3cncc4ccccc34)nc2)o1 [Compound 88] |
| 0.001 to 0.1 µM | V (V: >1000) | > 100 µM | FC(F)c1nnc(-c2ccc(COc3ccc(C(F)(F)F)nc3)nc2)o1 [Compound 91] |
| 0.001 to 0.1 µM | V (V: >1000) | > 100 µM | FC(F)c1nnc(-c2ccc(COc3cccc(C(F)(F)F)n3)nc2)o1 [Compound 92] |
| 0.001 to 0.1 µM | V (V: >1000) | > 100 µM | FC(F)c1nnc(-c2ccc(COc3cncc(C(F)(F)F)c3)nc2)o1 [Compound 93] |
| 0.001 to 0.1 µM | V (V: >1000) | > 100 µM | Cc1nc(OCc2ccc(-c3nnc(C(F)F)o3)cn2)c2ccccc2n1 [Compound 97] |
| 0.1 to 1 µM | V (V: >1000) | > 100 µM | FC(F)c1nnc(-c2ccc(COc3ccnc(N4CCOCC4)n3)nc2)o1 [Compound 99] |
| 0.001 to 0.1 µM | V (V: >1000) | > 100 µM | FC(F)c1nnc(-c2ccc(COc3cncnc3)nc2)o1 [Compound 102] |
| 0.1 to 1 µM | V (V: >1000) | > 100 µM | Fc1cnc(OCc2ccc(-c3nnc(C(F)F)o3)cn2)nc1 [Compound 106] |
| 0.001 to 0.1 µM | V (V: >1000) | 10 to 100 µM | N#Cc1ccc(OCc2ccc(-c3nnc(C(F)F)o3)cn2)cc1 [Compound 118, 4-((5-(5-(difluoromethyl)-1,3,4-oxadiazol-2-yl)pyridin-2-yl)methoxy)benzonitrile] |
| > 100 µM | V (V: >1000) | > 100 µM | NC(=O)c1ccc(OCc2ccc(-c3nnc(C(F)F)o3)cn2)cc1 [Compound 122, 4-((5-(5-(difluoromethyl)-1,3,4-oxadiazol-2-yl)pyridin-2-yl)methoxy)benzamide] |
| 0.1 to 1 µM | IV (IV: >100-1000) | > 100 µM | FC(F)c1nnc(-c2ccc(COc3ccn4cnnc4c3)nc2)o1 [Compound 184, 2-(6-(([1,2,4]triazolo[4,3-a]pyridin-7-yloxy)methyl)pyridin-3-yl)-5-(difluoromethyl)-1,3,4-oxadiazole] |
| 0.1 to 1 µM | IV (IV: >100-1000) | > 100 µM | CN1CCc2c(OCc3ccc(-c4nnc(C(F)F)o4)cn3)noc2C1 [Compound 191, 3-((5-(5-(Difluoromethyl)-1,3,4-oxadiazol-2-yl)pyridin-2-yl)methoxy)-6-methyl-4,5,6,7-tetrahydroisoxazolo[5,4-c]pyridine] |
| 0.1 to 1 µM | IV (IV: >100-1000) | > 100 µM | CCn1cnc2ccc(OCc3ccc(-c4nnc(C(F)F)o4)cn3)cc21 [Compound 202] |
| 1 to 10 µM | III (III: >10-100) | > 100 µM | CC(C)n1cnc2ccc(OCc3ccc(-c4nnc(C(F)F)o4)cn3)cc21 [Compound 203] |
| 0.001 to 0.1 µM | V (V: >1000) | > 100 µM | Cn1nc(-c2nc3ccc(OCc4ccc(-c5nnc(C(F)F)o5)cn4)cc3o2)ccc1=O [Compound 204] |
| 1 to 10 µM | III (III: >10-100) | > 100 µM | FC(F)c1nnc(-c2ccc(COc3ccc4c(c3)ncn4CCN3CCCC3)nc2)o1 [Compound 209] |
| 1 to 10 µM | III (III: >10-100) | > 100 µM | CN(C)CCn1cnc2cc(OCc3ccc(-c4nnc(C(F)F)o4)cn3)ccc21 [Compound 210] |
| 0.1 to 1 µM | IV (IV: >100-1000) | > 100 µM | CCn1cnc2cc(OCc3ccc(-c4nnc(C(F)F)o4)cn3)ccc21 [Compound 211] |
| 0.1 to 1 µM | IV (IV: >100-1000) | > 100 µM | CC(C)n1cnc2cc(OCc3ccc(-c4nnc(C(F)F)o4)cn3)ccc21 [Compound 212] |
